In patent US20250354195A1, “METHOD OF SCREENING” (UNIVERSITY OF DUNDEE, priority 2024, published 2025):

Molecular target: T1, GSK3β (Homo sapiens, UniProt P49841+Q96SW2)
T1 construct: genetically engineered using CRISPR/Cas9 technology to endogenously tag GSK3p protein with HiBiT tag at the C-terminus; host or cells: HEK293 cells, CRISPR/Cas9 knock-in of HiBiT at the endogenous GSK3B locus
Experiment: High throughput screening for GSK3β-HiBiT targeted degradation (Nano-Glo HiBiT Lytic luminescence)
Type: cell-based
Conditions: HEK293 cells with endogenously HiBiT-tagged GSK3β, 24 h incubation, products of one-pot plate array (FIG. 1, Method A); for DC50: 0.01-30 μM, read-out: DC50 (half-maximal degradation concentration)
Procedure: High throughput Screening for GSK3 β-HiBiTL: Test compounds were transferred into Echo plate (Beckman, 001-12782, Echo LDV384) using BRAVO automated liquid handling platform which serves as source plate (10 mM stocks in DMSO). Serial dilutions of the compounds were done using Echo550 liquid handler as 30 μM, 10 μM, 3 μM, 1 μM, 0.3 μM, 0.1 μM, 0.03 μM and 0.01 μM in final concentrations in assay plates. One column of each assay plate was reserved for DMSO control treatments. After compounds were serially diluted in assay plates, HEK293 cells (CRL-1573, ATCC) genetically engineered using CRISPR/Cas9 technology to endogenously tag GSK3p protein with HiBiT tag at the C-terminus (Schwinn et al., 2018, CRISPR-mediated tagging of endogenous proteins with a luminescent peptide, ACS Chem. Biol., 13(2), 467-74) were seeded at a density of 5000 cells/well in 50 μL complete media in 384-well TC-grade white plates (Perkin Elmer, Culturplate, 6007619) with the help of Multidrop Combi liquid dispenser and cells were incubated for 24 h with compounds at 37° C. in humidified incubators with 5% CO2. At the end of the treatment, equal volume of Nano-Glo HiBiT Lytic reagent (Promega N3030) supplied with Nano-Glo HiBiT Lytic substrate and LgBiT Protein were added into each well according to manufacturer's instructions, and cells were incubated on an orbital shaker for 15 seconds and for a further 15 minutes at room temperature. Luminescence signals were measured in an appropriate plate reader (PHERAstar FSX, BMG Labtech) (Dixon et al., 2016, NanoLuc complementation reporter optimized for accurate measurement of protein interactions in cells, ACS Chem. Biol., 11, 400-8). Changes in protein abundance upon compound treatment were further analysed by normalising raw luminescence values to DMSO values and fold changes were plotted using for parameter logistic regression with GraphPad Prism (10.1.2).
Furthermore, the present investigators have shown that bifunctional compounds manufactured using the method of the present disclosure may be effective in the uses of bifunctional compounds, for example as PROTACs in targeted protein degradation (TPD). […] GSK3p was targeted for degradation using a binder for GSK3p, and a binder for CRBN; the binders were comprised in molecules comprising moieties for reacting with the orthogonally reactive moieties of the linker. […] The “identifier” identifies the well of the multi-well plate that has been sampled, e.g., AHD2B-1-A1 relates to the top left well in FIG. 1. The DC50 provides an indication of the potency of the bifunctional compound in targeted degradation; Dmax provides an indication of the maximum possible degradation. The use of these metrics is further described in Flexible Fitting of PROTAC Concentration-Response Curves with Changepoint Gaussian Processes, Semenova et al., SLAS Discovery, 2021, 26, 1212-1224.

T1 sequence (P49841 whole entry): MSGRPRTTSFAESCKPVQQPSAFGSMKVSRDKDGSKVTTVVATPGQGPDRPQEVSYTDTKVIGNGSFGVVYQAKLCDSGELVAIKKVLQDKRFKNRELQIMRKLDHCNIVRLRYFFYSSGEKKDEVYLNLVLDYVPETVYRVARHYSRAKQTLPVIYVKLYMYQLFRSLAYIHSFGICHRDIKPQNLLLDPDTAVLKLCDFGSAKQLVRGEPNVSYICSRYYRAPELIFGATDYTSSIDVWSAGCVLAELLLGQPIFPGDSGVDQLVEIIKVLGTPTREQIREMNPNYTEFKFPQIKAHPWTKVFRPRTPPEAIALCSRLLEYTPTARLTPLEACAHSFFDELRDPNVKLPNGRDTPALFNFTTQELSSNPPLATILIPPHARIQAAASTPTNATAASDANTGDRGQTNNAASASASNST
T1 sequence (Q96SW2 whole entry): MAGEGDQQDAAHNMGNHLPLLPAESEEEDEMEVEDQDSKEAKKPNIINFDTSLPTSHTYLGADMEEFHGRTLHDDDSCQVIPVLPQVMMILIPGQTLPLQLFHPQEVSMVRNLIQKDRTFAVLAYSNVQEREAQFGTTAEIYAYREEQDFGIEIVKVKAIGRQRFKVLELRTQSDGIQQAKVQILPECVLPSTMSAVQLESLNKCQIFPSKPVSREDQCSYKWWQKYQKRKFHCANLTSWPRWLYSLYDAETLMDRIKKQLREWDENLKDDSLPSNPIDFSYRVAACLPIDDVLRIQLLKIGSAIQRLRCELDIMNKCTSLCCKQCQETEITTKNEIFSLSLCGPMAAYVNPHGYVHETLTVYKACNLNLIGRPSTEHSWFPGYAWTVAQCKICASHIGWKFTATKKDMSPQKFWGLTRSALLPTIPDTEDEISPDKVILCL
T1 sequence (Q16531 whole entry partner): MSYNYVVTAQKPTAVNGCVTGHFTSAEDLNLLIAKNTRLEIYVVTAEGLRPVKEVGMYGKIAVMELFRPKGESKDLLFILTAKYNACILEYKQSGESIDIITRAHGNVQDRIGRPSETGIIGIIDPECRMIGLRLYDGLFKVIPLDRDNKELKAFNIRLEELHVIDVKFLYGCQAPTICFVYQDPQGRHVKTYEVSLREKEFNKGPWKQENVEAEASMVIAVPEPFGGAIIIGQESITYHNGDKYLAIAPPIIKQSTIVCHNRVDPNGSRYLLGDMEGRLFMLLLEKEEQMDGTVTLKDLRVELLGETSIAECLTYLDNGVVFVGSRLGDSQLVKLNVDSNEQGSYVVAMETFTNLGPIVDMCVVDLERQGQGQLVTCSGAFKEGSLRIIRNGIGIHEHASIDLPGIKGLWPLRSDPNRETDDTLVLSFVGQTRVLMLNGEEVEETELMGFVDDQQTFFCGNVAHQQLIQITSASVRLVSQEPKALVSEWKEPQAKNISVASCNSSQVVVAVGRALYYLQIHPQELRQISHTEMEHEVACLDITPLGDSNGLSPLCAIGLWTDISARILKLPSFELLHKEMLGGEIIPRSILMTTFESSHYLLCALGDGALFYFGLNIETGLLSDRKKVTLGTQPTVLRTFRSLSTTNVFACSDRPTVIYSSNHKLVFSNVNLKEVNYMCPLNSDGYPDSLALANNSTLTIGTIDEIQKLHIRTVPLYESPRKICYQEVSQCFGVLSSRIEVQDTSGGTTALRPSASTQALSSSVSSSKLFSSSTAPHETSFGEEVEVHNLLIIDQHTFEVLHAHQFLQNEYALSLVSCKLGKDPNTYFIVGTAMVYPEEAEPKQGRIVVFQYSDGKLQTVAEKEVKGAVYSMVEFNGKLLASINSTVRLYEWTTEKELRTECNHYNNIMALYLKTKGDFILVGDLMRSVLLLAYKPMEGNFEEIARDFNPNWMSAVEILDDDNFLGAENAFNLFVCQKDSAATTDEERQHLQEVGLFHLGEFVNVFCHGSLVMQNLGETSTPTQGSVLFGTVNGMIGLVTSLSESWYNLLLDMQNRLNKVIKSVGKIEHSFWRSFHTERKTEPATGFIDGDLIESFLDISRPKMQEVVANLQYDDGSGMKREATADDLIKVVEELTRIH

Row | SMILES | DC50 [µM] | Dmax (maximal effect) [%]
1 | COc1ccc(-c2ocnc2C(=O)NCCCn2cc(-c3ccc(CN4CCN(Cc5ccc(C(=O)NC6CCC(=O)NC6=O)nc5)CC4)cn3)nn2)cc1Cl (stereo not shown) [AHD2B-1-F2] | > 10 | <30
2 | COc1ccc(-c2ocnc2C(=O)NCCCn2cc(CCCOc3ccc(CN4CCN(Cc5ccc(N6CCC(=O)NC6=O)cc5)CC4)cc3)nn2)cc1Cl [AHD2B-1-G4] | > 10 | <30
3 | COc1ccc(-c2ocnc2C(=O)NCCCn2cc(COCCOCCN3CCN(Cc4ccc(C(=O)NC5CCC(=O)NC5=O)c(F)c4)CC3)nn2)cc1Cl (stereo not shown) [AHD2B-1-C10] | > 10 | <30
4 | COc1ccc(-c2ocnc2C(=O)NCCCn2cc(CCCCN3CCN(Cc4cccc(N5CCC(=O)NC5=O)c4)CC3)nn2)cc1Cl [AHD2B-1-A1] | > 10 | <30
5 | COc1ccc(-c2ocnc2C(=O)NCCCn2cc(COCCOCCN3CCN(CC(=O)N[C@H](C(=O)N4C[C@H](O)C[C@H]4C(=O)NCc4ccc(-c5scnc5C)cc4)C(C)(C)C)CC3)nn2)cc1Cl [AHD2B-1-B10] | > 10 | <30
6 | COc1ccc(-c2ocnc2C(=O)NCCCn2cc(CCCCCN3CCN(Cc4cccc(N5CCC(=O)NC5=O)c4)CC3)nn2)cc1Cl [AHD2B-1-A7] | > 10 | <30
7 | COc1ccc(-c2ocnc2C(=O)NCCCn2cc(CCCOc3ccc(CN4CCN(Cc5ccc(C(=O)NC6CCC(=O)NC6=O)nc5)CC4)cc3)nn2)cc1Cl (stereo not shown) [AHD2B-1-F4] | 0.25 | 32
8 | COc1ccc(-c2ocnc2C(=O)NCCCn2cc(CCCN3CCN(CC(=O)N[C@H](C(=O)N4C[C@H](O)C[C@H]4C(=O)NCc4ccc(-c5scnc5C)cc4)C(C)(C)C)CC3)nn2)cc1Cl [AHD2B-1-B12] | > 10 | <30
9 | COc1ccc(-c2ocnc2C(=O)NCCCn2cc(-c3ccc(CN4CCN(Cc5cccc(N6CCC(=O)NC6=O)c5)CC4)cn3)nn2)cc1Cl [AHD2B-1-A2] | > 10 | <30
10 | COc1ccc(-c2ocnc2C(=O)NCCCn2cc(COCCOCCN3CCN(Cc4ccc(N5CCC(=O)NC5=O)cc4)CC3)nn2)cc1Cl [AHD2B-1-G10] | > 10 | <30
11 | COc1ccc(-c2ocnc2C(=O)NCCCn2cc(COc3ccc(CN4CCC5(C4)CN(Cc4ccc(C(=O)NC6CCC(=O)NC6=O)c(F)c4)C5)cc3)nn2)cc1Cl (stereo not shown) [AHD2B-1-C6] | 1.6 | 59
12 | COc1ccc(-c2ocnc2C(=O)NCCCn2cc(CCCCN3CCN(CC(=O)N[C@H](C(=O)N4C[C@H](O)C[C@H]4C(=O)NCc4ccc(-c5scnc5C)cc4)C(C)(C)C)CC3)nn2)cc1Cl [AHD2B-1-B1] | > 10 | <30
13 | COc1ccc(-c2ocnc2C(=O)NCCCn2cc(COc3ccc(CN4CCC5(C4)CN(Cc4ccc(N6CCC(=O)NC6=O)cc4)C5)cc3)nn2)cc1Cl [AHD2B-1-G6] | > 10 | <30
14 | COc1ccc(-c2ocnc2C(=O)NCCCn2cc(COc3ccc(CN4CCN(CC(=O)N[C@H](C(=O)N5C[C@H](O)C[C@H]5C(=O)NCc5ccc(-c6scnc6C)cc5)C(C)(C)C)CC4)cc3)nn2)cc1Cl [AHD2B-1-B3] | > 10 | <30
15 | COc1ccc(-c2ocnc2C(=O)NCCCn2cc(-c3cccc(CN4CCN(Cc5ccc(C(=O)NC6CCC(=O)NC6=O)nc5)CC4)n3)nn2)cc1Cl (stereo not shown) [AHD2B-1-F8] | > 10 | <30
16 | COc1ccc(-c2ocnc2C(=O)NCCCn2cc(CCCCN3CCN(Cc4ccc(N5CCC(=O)NC5=O)cc4)CC3)nn2)cc1Cl [AHD2B-1-G1] | > 10 | <30

Row | SMILES | DC50 [µM] | Dmax (maximal effect) [%]
17 | COc1ccc(-c2ocnc2C(=O)NCCCn2cc(CCCCCN3CCCN(Cc4cccc(N5CCC(=O)NC5=O)c4)CC3)nn2)cc1Cl [AHD2B-1-A9] | > 10 | <30
18 | COc1ccc(-c2ocnc2C(=O)NCCCn2cc(-c3cccc(CN4CCN(Cc5cccc(N6CCC(=O)NC6=O)c5)CC4)n3)nn2)cc1Cl [AHD2B-1-A8] | > 10 | <30
19 | COc1ccc(-c2ocnc2C(=O)NCCCn2cc(-c3ccc(CN4CCN(Cc5ccc6c(N7CCC(=O)NC7=O)nn(C)c6c5)CC4)cn3)nn2)cc1Cl [AHD2B-1-D2] | < 0.25 | 63
20 | COc1ccc(-c2ocnc2C(=O)NCCCn2cc(CCCOc3ccc(CN4CCN(CC(=O)N[C@H](C(=O)N5C[C@H](O)C[C@H]5C(=O)NCc5ccc(-c6scnc6C)cc5)C(C)(C)C)CC4)cc3)nn2)cc1Cl [AHD2B-1-B4] | > 10 | <30
21 | COc1ccc(-c2ocnc2C(=O)NCCCn2cc(COCCOCCN3CCN(Cc4cccc(N5CCC(=O)NC5=O)c4)CC3)nn2)cc1Cl [AHD2B-1-A10] | > 10 | <30
22 | COc1ccc(-c2ocnc2C(=O)NCCCn2cc(COC3CCN(CC(=O)N[C@H](C(=O)N4C[C@H](O)C[C@H]4C(=O)NCc4ccc(-c5scnc5C)cc4)C(C)(C)C)CC3)nn2)cc1Cl [AHD2B-1-B5] | > 10 | <30
23 | COc1ccc(-c2ocnc2C(=O)NCCCn2cc(CCCN3CCN(Cc4ccc(N5CCC(=O)NC5=O)cc4)CC3)nn2)cc1Cl [AHD2B-1-G12] | > 10 | <30
24 | COc1ccc(-c2ocnc2C(=O)NCCCn2cc(CCCCCN3CCN(Cc4ccc(N5CCC(=O)NC5=O)cc4)CC3)nn2)cc1Cl [AHD2B-1-G7] | > 10 | <30
25 | COc1ccc(-c2ocnc2C(=O)NCCCn2cc(COc3ccc(CN4CC5(CN(CC(=O)N[C@H](C(=O)N6C[C@H](O)C[C@H]6C(=O)NCc6ccc(-c7scnc7C)cc6)C(C)(C)C)C5)C4)cc3)nn2)cc1Cl [AHD2B-1-B11] | > 10 | <30
26 | COc1ccc(-c2ocnc2C(=O)NCCCn2cc(COc3ccc(CN4CC5(C4)CN(Cc4cccc(N6CCC(=O)NC6=O)c4)C5)cc3)nn2)cc1Cl [AHD2B-1-A11] | > 10 | <30
27 | COc1ccc(-c2ocnc2C(=O)NCCCn2cc(CCCCCN3CCCN(Cc4ccc(C(=O)NC5CCC(=O)NC5=O)nc4)CC3)nn2)cc1Cl (stereo not shown) [AHD2B-1-F9] | > 10 | <30
28 | COc1ccc(-c2ocnc2C(=O)NCCCn2cc(COc3ccc(CN4CCC5(C4)CN(CC(=O)N[C@H](C(=O)N4C[C@H](O)C[C@H]4C(=O)NCc4ccc(-c6scnc6C)cc4)C(C)(C)C)C5)cc3)nn2)cc1Cl [AHD2B-1-B6] | > 10 | <30
29 | COc1ccc(-c2ocnc2C(=O)NCCCn2cc(CCCOc3ccc(CN4CCN(Cc5ccc6c(N7CCC(=O)NC7=O)nn(C)c6c5)CC4)cc3)nn2)cc1Cl [AHD2B-1-D4] | < 0.25 | 41
30 | COc1ccc(-c2ocnc2C(=O)NCCCn2cc(-c3cccc(CN4CCN(CC(=O)N[C@H](C(=O)N5C[C@H](O)C[C@H]5C(=O)NCc5ccc(-c6scnc6C)cc5)C(C)(C)C)CC4)n3)nn2)cc1Cl [AHD2B-1-B8] | > 10 | <30
31 | COc1ccc(-c2ocnc2C(=O)NCCCn2cc(COc3ccc(CN4CCN(Cc5ccc(N6CCC(=O)NC6=O)cc5)CC4)cc3)nn2)cc1Cl [AHD2B-1-G3] | > 10 | <30
32 | COc1ccc(-c2ocnc2C(=O)NCCCn2cc(COc3ccc(CN4CCC5(C4)CN(Cc4ccc(C(=O)NC6CCC(=O)NC6=O)nc4)C5)cc3)nn2)cc1Cl (stereo not shown) [AHD2B-1-F6] | 1.1 | 34
